According to ChEMBL document CHEMBL1201862, “PubChem BioAssay data set” (2004):
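Interpolation was linear, between the two tested concentrations surrounding the appropriate level; five concentrations were tested over 48 hours in 96-well plates. Abbreviation: GI50, concentration required for 50% inhibition of growth.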 Active and inactive are the calls of the source. Cut-off read from the data, not from the text of the source: active = GI50 up to about 1.1 µM and inactive = higher.

Experiments:
Assay in all cases: NCI anticancer screen, dose series, 48 h
786-0 = test system: 786-0
A498 = test system: A498
A549 = test system: A549
ACHN = test system: ACHN
CAKI-1 = test system: CAKI-1
CCRF-CEM = test system: CCRF-CEM
COLO 205 = test system: COLO 205
DLD-1 = test system: DLD-1
DMS-114 = test system: DMS-114
DMS-273 = test system: DMS-273
EKVX = test system: EKVX
HCC 2998 = test system: HCC 2998
HCT-116 = test system: HCT-116
HCT-15 = test system: HCT-15
HL-60 = test system: HL-60
HOP-18 = test system: HOP-18
HOP-62 = test system: HOP-62
HOP-92 = test system: HOP-92
HT-29 = test system: HT-29
IGROV-1 = test system: IGROV-1
K562 = test system: K562
KM-20L2 = test system: KM-20L2
KM12 = test system: KM12
LOX IMVI = test system: LOX IMVI
LXFL 529 = test system: LXFL 529
M14 = test system: M14
M19-MEL = test system: M19-MEL
MOLT-4 = test system: MOLT-4
Malme-3M = test system: Malme-3M
NCI-H226 = test system: NCI-H226
NCI-H23 = test system: NCI-H23
NCI-H460 = test system: NCI-H460
NCI-H522 = test system: NCI-H522
OVCAR-3 = test system: OVCAR-3
OVCAR-4 = test system: OVCAR-4
OVCAR-5 = test system: OVCAR-5
OVCAR-8 = test system: OVCAR-8
RPMI-8226 = test system: RPMI-8226
RXF 393 = test system: RXF 393
RXF 631 = test system: RXF 631
SF-268 = test system: SF-268
SF-295 = test system: SF-295
SF-539 = test system: SF-539
SK-MEL-28 = test system: SK-MEL-28
SK-MEL-2 = test system: SK-MEL-2
SK-MEL-5 = test system: SK-MEL-5
SK-OV-3 = test system: SK-OV-3
SN12C = test system: SN12C
SNB-19 = test system: SNB-19
SNB-75 = test system: SNB-75
SNB-78 = test system: SNB-78
SR = test system: SR
SW-620 = test system: SW-620
TK-10 = test system: TK-10
U-251 = test system: U-251
UACC-257 = test system: UACC-257
UACC-62 = test system: UACC-62
UO-31 = test system: UO-31
XF498 = test system: XF498

For `O=C(O)CCC(=O)N1C/C(=C\c2ccccc2)C(=O)/C(=C/c2ccccc2)C1`, the GI50 (786-0) was 2.52 µM (inactive), the GI50 (A498) was 13.9 µM (inactive) and the GI50 (A549) was 19.1 µM (inactive). The GI50 (ACHN) was 2.07 µM (inactive), the GI50 (CAKI-1) was 4.71 µM (inactive) and the GI50 (CCRF-CEM) was 1.03 µM (active). For the same compound, the GI50 (COLO 205) was 3.47 µM (inactive), the GI50 (DLD-1) was 2.32 µM (inactive) and the GI50 (DMS-114) was 2.18 µM (inactive). The GI50 (DMS-273) was 2.16 µM (inactive), the GI50 (EKVX) was 5.02 µM (inactive) and the GI50 (HCC 2998) was 2.17 µM (inactive). For the same compound, the GI50 (HCT-116) was 1.75 µM (inactive), the GI50 (HCT-15) was 2.06 µM and the GI50 (HL-60) was 2.21 µM (inactive). For the same compound, the GI50 (HOP-18) was 5.55 µM (inactive), the GI50 (HOP-62) was 16.8 µM (inactive) and the GI50 (HOP-92) was 16.3 µM (inactive). The GI50 (HT-29) was 2.23 µM (inactive), the GI50 (IGROV-1) was 3.45 µM (inactive) and the GI50 (K562) was 1.19 µM (inactive). The GI50 (KM-20L2) was 2.92 µM (inactive), the GI50 (KM12) was 1.82 µM (inactive) and the GI50 (LOX IMVI) was 1.68 µM (inactive). The GI50 (LXFL 529) was 2.67 µM (inactive), the GI50 (M14) was 2.32 µM (inactive) and the GI50 (M19-MEL) was 1.75 µM (inactive). For the same compound, the GI50 (MOLT-4) was 2.34 µM (inactive), the GI50 (Malme-3M) was 2.33 µM (inactive) and the GI50 (NCI-H226) was 18 µM (inactive). For the same compound, the GI50 (NCI-H23) was 3.64 µM (inactive), the GI50 (NCI-H460) was 8.22 µM (inactive) and the GI50 (NCI-H522) was 1.07 µM (active). For the same compound, the GI50 (OVCAR-3) was 2.41 µM (inactive), the GI50 (OVCAR-4) was 2.3 µM (inactive) and the GI50 (OVCAR-5) was 15 µM (inactive). The GI50 (OVCAR-8) was 3.09 µM (inactive), the GI50 (RPMI-8226) was 2.42 µM (inactive) and the GI50 (RXF 393) was 3.67 µM (inactive). For the same compound, the GI50 (RXF 631) was 3.66 µM (inactive), the GI50 (SF-268) was 2.48 µM (inactive) and the GI50 (SF-295) was 2.44 µM (inactive). For the same compound, the GI50 (SF-539) was 1.82 µM (inactive), the GI50 (SK-MEL-28) was 1.97 µM (inactive) and the GI50 (SK-MEL-2) was 1.82 µM (inactive). For the same compound, the GI50 (SK-MEL-5) was 2.65 µM (inactive), the GI50 (SK-OV-3) was 12.7 µM (inactive) and the GI50 (SN12C) was 1.93 µM (inactive). The GI50 (SNB-19) was 3.16 µM (inactive), the GI50 (SNB-75) was 6.82 µM (inactive) and the GI50 (SNB-78) was 7.24 µM (inactive). For the same compound, the GI50 (SR) was 0.59 µM (active), the GI50 (SW-620) was 1.58 µM (inactive) and the GI50 (TK-10) was 9.1 µM (inactive). The GI50 (U-251) was 1.78 µM (inactive), the GI50 (UACC-257) was 2.29 µM (inactive) and the GI50 (UACC-62) was 1.26 µM (inactive). The GI50 (UO-31) was 18.6 µM (inactive) and the GI50 (XF498) was 2.7 µM (inactive).
For `CCOC(=O)c1c(C(F)(F)F)oc2c1ccc1nc3nonc3nc12`, the GI50 (786-0) was 12.4 µM (inactive), the GI50 (A498) was 16.7 µM (inactive) and the GI50 (A549) was 18 µM (inactive). The GI50 (ACHN) was 15.3 µM (inactive), the GI50 (CAKI-1) was 14 µM (inactive) and the GI50 (CCRF-CEM) was 1.91 µM (inactive). For the same compound, the GI50 (COLO 205) was 24.2 µM (inactive), the GI50 (DLD-1) was 14.3 µM (inactive) and the GI50 (DMS-114) was 23.7 µM (inactive). For the same compound, the GI50 (DMS-273) was 19.1 µM (inactive), the GI50 (EKVX) was 17.9 µM (inactive) and the GI50 (HCC 2998) was 24.9 µM (inactive). For the same compound, the GI50 (HCT-116) was 17 µM (inactive), the GI50 (HCT-15) was 17.3 µM and the GI50 (HL-60) was 4.46 µM (inactive). For the same compound, the GI50 (HOP-18) was 11 µM (inactive), the GI50 (HOP-62) was 13.8 µM (inactive) and the GI50 (HOP-92) was 13.2 µM (inactive). For the same compound, the GI50 (HT-29) was 15.5 µM (inactive), the GI50 (IGROV-1) was 23.2 µM (inactive) and the GI50 (K562) was 2.67 µM (inactive). For the same compound, the GI50 (KM-20L2) was 18.2 µM (inactive), the GI50 (KM12) was 19.3 µM (inactive) and the GI50 (LOX IMVI) was 16.2 µM (inactive). The GI50 (LXFL 529) was 14 µM (inactive), the GI50 (M14) was 9.14 µM (inactive) and the GI50 (M19-MEL) was 18.6 µM (inactive). For the same compound, the GI50 (MOLT-4) was 2.54 µM (inactive), the GI50 (Malme-3M) was 17 µM (inactive) and the GI50 (NCI-H226) was 19.9 µM (inactive). The GI50 (NCI-H23) was 13.4 µM (inactive), the GI50 (NCI-H460) was 23.3 µM (inactive) and the GI50 (NCI-H522) was 15.1 µM (inactive). The GI50 (OVCAR-3) was 16.5 µM (inactive), the GI50 (OVCAR-4) was 9.82 µM (inactive) and the GI50 (OVCAR-5) was 17.2 µM (inactive). For the same compound, the GI50 (OVCAR-8) was 16.3 µM (inactive), the GI50 (RPMI-8226) was 6.07 µM (inactive) and the GI50 (RXF 393) was 11.9 µM (inactive). The GI50 (RXF 631) was 19 µM (inactive), the GI50 (SF-268) was 17.9 µM (inactive) and the GI50 (SF-295) was 27 µM (inactive). The GI50 (SF-539) was 16.2 µM (inactive), the GI50 (SK-MEL-28) was 14.3 µM (inactive) and the GI50 (SK-MEL-2) was 19.3 µM (inactive). The GI50 (SK-MEL-5) was 13.4 µM (inactive), the GI50 (SK-OV-3) was 20.1 µM (inactive) and the GI50 (SN12C) was 17.4 µM (inactive). For the same compound, the GI50 (SNB-19) was 18.2 µM (inactive), the GI50 (SNB-75) was 13.2 µM (inactive) and the GI50 (SNB-78) was 14.7 µM (inactive). For the same compound, the GI50 (SR) was 3.58 µM (inactive), the GI50 (SW-620) was 16.8 µM (inactive) and the GI50 (TK-10) was 19.4 µM (inactive). The GI50 (U-251) was 15.7 µM (inactive), the GI50 (UACC-257) was 13.5 µM (inactive) and the GI50 (UACC-62) was 15 µM (inactive). For the same compound, the GI50 (UO-31) was 19.2 µM (inactive) and the GI50 (XF498) was 17 µM (inactive).
`Cc1cc2cc(Cl)ccc2nc1C(=O)c1ccccc1` was tested, and the GI50 (786-0) was > 100 µM (inactive), the GI50 (A549) was > 100 µM (inactive) and the GI50 (ACHN) was > 100 µM (inactive). For the same compound, the GI50 (CAKI-1) was > 100 µM (inactive), the GI50 (COLO 205) was > 100 µM (inactive) and the GI50 (DLD-1) was > 100 µM (inactive). The GI50 (DMS-114) was > 100 µM (inactive), the GI50 (DMS-273) was > 100 µM (inactive) and the GI50 (HCC 2998) was > 100 µM (inactive). For the same compound, the GI50 (HCT-116) was > 100 µM (inactive), the GI50 (HCT-15) was over 100 µM and the GI50 (HOP-18) was > 100 µM (inactive). For the same compound, the GI50 (HOP-62) was 43.1 µM (inactive), the GI50 (IGROV-1) was > 100 µM (inactive) and the GI50 (K562) was > 100 µM (inactive). The GI50 (KM-20L2) was > 100 µM (inactive), the GI50 (KM12) was > 100 µM (inactive) and the GI50 (LOX IMVI) was > 100 µM (inactive). For the same compound, the GI50 (LXFL 529) was > 100 µM (inactive), the GI50 (M14) was > 100 µM (inactive) and the GI50 (M19-MEL) was > 100 µM (inactive). For the same compound, the GI50 (MOLT-4) was > 100 µM (inactive), the GI50 (Malme-3M) was > 100 µM (inactive) and the GI50 (NCI-H226) was > 100 µM (inactive). The GI50 (NCI-H23) was > 100 µM (inactive), the GI50 (NCI-H522) was > 100 µM (inactive) and the GI50 (OVCAR-3) was > 100 µM (inactive). The GI50 (OVCAR-4) was > 100 µM (inactive), the GI50 (OVCAR-5) was > 100 µM (inactive) and the GI50 (OVCAR-8) was > 100 µM (inactive). For the same compound, the GI50 (RPMI-8226) was > 100 µM (inactive), the GI50 (RXF 393) was 22.5 µM (inactive) and the GI50 (RXF 631) was > 100 µM (inactive). The GI50 (SF-268) was > 100 µM (inactive), the GI50 (SF-295) was 27.8 µM (inactive) and the GI50 (SF-539) was > 100 µM (inactive). The GI50 (SK-MEL-28) was > 100 µM (inactive), the GI50 (SK-MEL-2) was > 100 µM (inactive) and the GI50 (SK-MEL-5) was > 100 µM (inactive). The GI50 (SN12C) was > 100 µM (inactive), the GI50 (SNB-19) was > 100 µM (inactive) and the GI50 (SNB-75) was 21.3 µM (inactive). The GI50 (SNB-78) was > 100 µM (inactive), the GI50 (SR) was > 100 µM (inactive) and the GI50 (SW-620) was > 100 µM (inactive). The GI50 (TK-10) was > 100 µM (inactive), the GI50 (U-251) was > 100 µM (inactive) and the GI50 (UACC-257) was 32.4 µM (inactive). For the same compound, the GI50 (UACC-62) was > 100 µM (inactive), the GI50 (UO-31) was > 100 µM (inactive) and the GI50 (XF498) was > 100 µM (inactive).
